# Laboratory results as given in patent US20220282217A1, “COMPOSITIONS AND METHODS FOR PREPARING T CELL COMPOSITIONS AND USES THEREOF” (priority 2019, published 2022).
# Where a SMILES comes first, the peptide text is derived from it.
# Experiments:
# [1] = target: HLA-A03.01 (Homo sapiens, UniProt P04439); assay: Class I MHC peptide binding affinity (displacement of radiolabeled reference peptide); settings: allele A03.01; read-out: Observed Affinity (IC50; (nM))
# [2] = target: T1, HLA-A02.01 (Homo sapiens, UniProt P04439, D140Y/D185E/D98H/E176V/E277Q/G131W/G231S/I119V/I121R/I166T/I218V/N151K/N90K/P208A/P217A/Q86G/Q94H/R138H/R169H); assay: Class I MHC peptide binding stability (pMHC-I dissociation, 125I-labeled light chain); settings: for Stability (T1/2 (h)): allele A02.01
# T1 construct: made in house; host or cells: E. coli
# [3] = target: HLA-A02.01 (Homo sapiens, UniProt P04439, D140Y/D185E/D98H/E176V/E277Q/G131W/G231S/I119V/I121R/I166T/I218V/L300P/L318F/N151K/N90K/P208A/P217A/Q86G/Q94H/R138H/R169H/T345S); assay: Class I MHC peptide binding affinity (displacement of radiolabeled reference peptide); settings: for IC50: allele A02.01, read-out: Observed Affinity (IC50, (nM))
# Outline: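 Steps: form MHCI complexes carrying labeled reference peptide; add competitor peptides at graded doses; incubate 2 days; separate complex-bound from free label by size-exclusion chromatography and count what remains bound.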
Molecule,IC50 [1] [nM],Stability (T1/2 (h)) [2] [h],IC50 [3] [nM],"Stability (half-life (hr.)) ([2]; EGFR T790M peptides, HLA allele A02.01) [h]","Kd ([3]; EGFR T790M peptides, HLA allele A02.01, read-out: Affinity) [nM]"
CC(C)C[C@H](NC(=O)[C@@H](NC(=O)[C@@H](NC(=O)[C@@H](N)CS)[C@@H](C)O)[C@@H](C)O)C(=O)N[C@@H](CC(N)=O)C(=O)N[C@@H](CO)C(=O)N1CCC[C@H]1C(=O)N1CCC[C@H]1C(=O)N[C@@H](CC(C)C)C(=O)N[C@@H](CCCCN)C(=O)O (H-CTTLNSPPLK-OH; N-terminus and C-terminus assumed),63.6,–,–,–,–
CC(C)C[C@H](NC(=O)[C@@H](N)CC(C)C)C(=O)N[C@H](C(=O)N[C@@H](CO)C(=O)N[C@@H](CO)C(=O)N[C@@H](CO)C(=O)N[C@@H](CCCNC(=N)N)C(=O)N[C@@H](CCC(=O)O)C(=O)N[C@@H](Cc1c[nH]c2ccccc12)C(=O)N[C@@H](CCCCN)C(=O)O)[C@@H](C)O (H-LLTSSSREWK-OH; N-terminus and C-terminus assumed),1770,–,–,–,–
CC(C)C[C@H](NC(=O)[C@H](Cc1ccccc1)NC(=O)[C@H](CO)NC(=O)[C@@H](N)CC(C)C)C(=O)N[C@@H](CO)C(=O)N[C@@H](CO)C(=O)N[C@@H](Cc1c[nH]c2ccccc12)C(=O)N[C@@H](CC(=O)O)C(=O)N[C@@H](Cc1ccc(O)cc1)C(=O)N[C@@H](CCCNC(=N)N)C(=O)O (H-LSFLSSWDYR-OH; N-terminus and C-terminus assumed),101,–,–,–,–
CC[C@H](C)[C@H](NC(=O)[C@H](Cc1c[nH]c2ccccc12)NC(=O)[C@H](CS)NC(=O)[C@H](Cc1ccccc1)NC(=O)[C@H](Cc1ccccc1)NC(=O)[C@@H](N)Cc1ccccc1)C(=O)N[C@@H](CC(C)C)C(=O)N[C@@H](CO)C(=O)N[C@@H](CS)C(=O)N[C@@H](CCCCN)C(=O)O (H-FFFCWILSCK-OH; N-terminus and C-terminus assumed),597,–,–,–,–
CSCC[C@H](NC(=O)[C@@H](NC(=O)[C@@H](N)Cc1ccccc1)C(C)C)C(=O)N[C@@H](CO)C(=O)N[C@@H](CC(=O)O)C(=O)N[C@H](C(=O)N[C@H](C(=O)N[C@@H](Cc1ccc(O)cc1)C(=O)N[C@@H](CCCCN)C(=O)O)[C@@H](C)O)[C@@H](C)O (H-FVMSDTTYK-OH; N-terminus and C-terminus assumed),66.9,–,–,–,–
CSCC[C@H](NC(=O)[C@H](CCC(=O)O)NC(=O)[C@H](CC(C)C)NC(=O)[C@H](CC(C)C)NC(=O)[C@H](CC(C)C)NC(=O)[C@H](CC(=O)O)NC(=O)[C@H](CO)NC(=O)[C@H](CC(C)C)NC(=O)[C@@H]1CCCN1)C(=O)O (H-PLSDLLLEM-OH; N-terminus and C-terminus assumed),–,2.7,404,–,–
CC[C@H](C)[C@H](NC(=O)[C@H](Cc1ccc(O)cc1)NC(=O)[C@H](CC(C)C)NC(=O)[C@@H](N)CC(C)C)C(=O)N[C@H](C(=O)N[C@@H](C)C(=O)N[C@@H](Cc1ccccc1)C(=O)N[C@@H](Cc1ccccc1)C(=O)N[C@@H](CC(C)C)C(=O)O)[C@@H](C)O,–,17,713,–,–
CC[C@H](C)[C@H](NC(=O)[C@H](Cc1ccccc1)NC(=O)[C@H](CS)NC(=O)[C@H](CO)NC(=O)[C@H](CC(N)=O)NC(=O)[C@H](CO)NC(=O)[C@H](C)NC(=O)[C@H](CO)NC(=O)[C@H](CC(C)C)NC(=O)[C@H](C)N)C(=O)O (H-ALSASNSCFI-OH; N-terminus and C-terminus assumed),–,0.8,226,–,–
CSCC[C@H](NC(=O)[C@H](CCC(=O)O)NC(=O)[C@H](CC(C)C)NC(=O)[C@H](CC(C)C)NC(=O)[C@H](CC(C)C)NC(=O)[C@H](CC(=O)O)NC(=O)[C@H](CS)NC(=O)[C@H](CC(C)C)NC(=O)[C@@H]1CCCN1)C(=O)O (H-PLCDLLLEM-OH; N-terminus and C-terminus assumed),–,0.8,602,–,–
CC(C)[C@H](N)C(=O)N[C@H](C(=O)N1CCC[C@H]1C(=O)N[C@@H](CS)C(=O)N[C@@H](CCC(=O)O)C(=O)N1CCC[C@H]1C(=O)N1CCC[C@H]1C(=O)N[C@@H](CCC(=O)O)C(=O)N[C@H](C(=O)O)C(C)C)C(C)C,–,0.9,187,–,–
CC(C)C[C@H](NC(=O)[C@H](Cc1ccccc1)NC(=O)[C@@H](NC(=O)[C@H](Cc1ccc(O)cc1)NC(=O)[C@@H](NC(=O)CN)C(C)C)[C@@H](C)O)C(=O)N1CCC[C@H]1C(=O)N[C@@H](CO)C(=O)N[C@H](C(=O)O)[C@@H](C)O (H-GVYTFLPST-OH; N-terminus and C-terminus assumed),–,1.3,779,–,–
CC(C)C[C@H](NC(=O)CN)C(=O)N[C@H](C(=O)N[C@@H](CC(=O)O)C(=O)N[C@@H](CCC(=O)O)C(=O)N[C@@H](CCC(N)=O)C(=O)N[C@@H](CCC(N)=O)C(=O)N[C@@H](CCC(=O)O)C(=O)N[C@H](C(=O)O)C(C)C)C(C)C,–,7.4,44,–,–
CC[C@H](C)[C@H](NC(=O)[C@@H](NC(=O)[C@H](CC(C)C)NC(=O)[C@@H](NC(=O)[C@@H]1CCCN1C(=O)[C@H](CCCNC(=N)N)NC(=O)[C@H](Cc1c[nH]c2ccccc12)NC(=O)[C@H](CC(N)=O)NC(=O)[C@H](CCSC)NC(=O)CN)[C@@H](C)CC)[C@@H](C)O)C(=O)O,–,0.5,282,–,–
CC[C@H](C)[C@H](NC(=O)[C@@H](NC(=O)[C@H](CC(C)C)NC(=O)[C@@H](NC(=O)[C@@H]1CCCN1C(=O)[C@H](CCCNC(=N)N)NC(=O)[C@H](CCC(N)=O)NC(=O)[C@H](CC(N)=O)NC(=O)[C@H](CCSC)NC(=O)CN)[C@@H](C)CC)[C@@H](C)O)C(=O)O,–,0.4,709,–,–

# Next, values leading:
IC50 [1] [nM],Stability (T1/2 (h)) [2] [h],IC50 [3] [nM],"Stability (half-life (hr.)) ([2]; EGFR T790M peptides, HLA allele A02.01) [h]","Kd ([3]; EGFR T790M peptides, HLA allele A02.01, read-out: Affinity) [nM]",Molecule
6,–,–,–,–,CSCC[C@H](NC(=O)[C@@H](N)CC(C)C)C(=O)N[C@@H](CC(C)C)C(=O)N[C@@H](CC(C)C)C(=O)N[C@@H](CCCNC(=N)N)C(=O)N[C@@H](CC(C)C)C(=O)N[C@@H](CC(N)=O)C(=O)N[C@@H](CC(C)C)C(=O)N[C@@H](CCCNC(=N)N)C(=O)N[C@@H](CCCCN)C(=O)O (H-LMLLRLNLRK-OH; N-terminus and C-terminus assumed)
5.7,–,–,–,–,CSCC[C@H](NC(=O)[C@@H](N)CCCCN)C(=O)N[C@@H](CCCNC(=N)N)C(=O)N[C@@H](CCCCN)C(=O)N[C@@H](CCCCN)C(=O)N[C@@H](Cc1ccc(O)cc1)C(=O)N[C@@H](C)C(=O)N[C@@H](CCC(N)=O)C(=O)N[C@@H](CCCCN)C(=O)O (H-KMRKKYAQK-OH; N-terminus and C-terminus assumed)
122,–,–,–,–,CC[C@H](C)[C@H](NC(=O)[C@H](C)NC(=O)[C@H](CS)NC(=O)[C@@H](NC(=O)[C@@H](N)Cc1ccc(O)cc1)[C@@H](C)O)C(=O)N[C@H](C(=O)N[C@H](C(=O)N[C@H](C(=O)N[C@@H](CCCCN)C(=O)O)C(C)C)[C@@H](C)O)[C@@H](C)O
–,1.9,131,–,–,CC[C@H](C)[C@H](NC(=O)[C@H](Cc1ccc(O)cc1)NC(=O)[C@@H]1CCCN1C(=O)[C@H](CO)NC(=O)[C@H](CC(N)=O)NC(=O)[C@H](CO)NC(=O)[C@H](CCC(=O)O)NC(=O)[C@H](Cc1c[nH]cn1)NC(=O)[C@H](CC(C)C)NC(=O)[C@@H](N)C(C)C)C(=O)O (H-VLHESNSPYI-OH; N-terminus and C-terminus assumed)
–,0.4,1610,0.3701,1210,CC[C@H](C)[C@H](N)C(=O)N[C@@H](CCSC)C(=O)N[C@@H](CCC(N)=O)C(=O)N[C@@H](CC(C)C)C(=O)N[C@@H](CCSC)C(=O)N1CCC[C@H]1C(=O)N[C@@H](Cc1ccccc1)C(=O)NCC(=O)N[C@@H](CS)C(=O)O (H-IMQLMPFGC-OH; N-terminus and C-terminus assumed)
–,11,72,–,–,CC[C@H](C)[C@H](NC(=O)[C@H](CC(C)C)NC(=O)[C@H](Cc1c[nH]cn1)NC(=O)[C@@H](NC(=O)[C@H](CO)NC(=O)[C@H](CC(C)C)NC(=O)[C@H](CC(C)C)NC(=O)[C@@H](N)C(C)C)C(C)C)C(=O)N[C@H](C(=O)O)C(C)C (H-VLLSVHLIV-OH; N-terminus and C-terminus assumed)
–,1.5,68,–,–,LQMDFLVEIPA
–,4.2,151,–,–,CSCC[C@H](NC(=O)[C@H](CCC(=O)O)NC(=O)[C@H](CC(C)C)NC(=O)[C@H](CC(C)C)NC(=O)[C@H](CC(C)C)NC(=O)[C@H](CC(=O)O)NC(=O)[C@H](CC(N)=O)NC(=O)[C@H](CC(C)C)NC(=O)[C@@H]1CCCN1)C(=O)O (H-PLNDLLLEM-OH; N-terminus and C-terminus assumed)
–,16.5,2,–,–,CSCC[C@H](NC(=O)[C@@H](N)C(C)C)C(=O)N[C@@H](C)C(=O)N[C@@H](Cc1ccc(O)cc1)C(=O)N[C@H](C(=O)N[C@@H](CCSC)C(=O)N[C@@H](C)C(=O)NCC(=O)N[C@H](C(=O)O)C(C)C)C(C)C (H-VMAYVMAGV-OH; N-terminus and C-terminus assumed)
–,0.5,223,–,–,CC[C@H](C)[C@H](N)C(=O)N[C@@H](CC(C)C)C(=O)N[C@@H](CCSC)C(=O)N[C@@H](CCC(=O)O)C(=O)N[C@@H](CC(C)C)C(=O)N[C@@H](CCSC)C(=O)N[C@@H](C)C(=O)NCC(=O)NCC(=O)O (H-ILMELMAGG-OH; N-terminus and C-terminus assumed)
–,14.2,10,–,–,CC(C)C[C@H](NC(=O)CN)C(=O)N[C@@H](CC(C)C)C(=O)N[C@@H](C)C(=O)N[C@@H](Cc1ccccc1)C(=O)N[C@@H](Cc1c[nH]c2ccccc12)C(=O)N[C@@H](CC(=O)O)C(=O)N[C@@H](CO)C(=O)N[C@@H](CCC(N)=O)C(=O)N[C@H](C(=O)O)C(C)C (H-GLLAFWDSQV-OH; N-terminus and C-terminus assumed)
